Source: patent publication US20100203576A1, “PROCESS FOR DETERMINATION OF MICROORGANISMS' RESISTANCE TO ANTIBIOTICS” (INTELLIGENCE ARTIFICIELLE APPLICATIONS, priority 2009, published 2010)

Test system: Escherichia coli
Assay: Antibiogram resistance of similar Escherichia coli strains recorded in the data base
Type: cell-based
Parameters: key to Resistance, MO list in data base 1 / Resistance, MO list in data base 2 / Resistance, MO list in data base 3 / Resistance, MO list in data base 4: R: significant resistance; I: average resistance; S: without resistance
Settings: for Resistance of Escherichia coli species 1 to 4 (in words): Escherichia coli species 1 to 4, similar between 98.5 to 83.6% to the urine specimen strain; for Resistance, MO list in data base 1: Escherichia coli strain 1, similarity 98.5%; for Resistance, MO list in data base 2: Escherichia coli strain 2, similarity 97.8%; for Resistance, MO list in data base 3: Escherichia coli strain 3, similarity 84.2%; for Resistance, MO list in data base 4: Escherichia coli strain 4, similarity 83.6%

CC1(C)S[C@@H]2[C@H](NC(=O)[C@H](N)c3ccc(O)cc3)C(=O)N2[C@H]1C(=O)O [AMOXICILLIN, amoxicillin] was tested, and the “Resistance of Escherichia coli species 1 to 4 (in words)” value (shortened to “Resistance … (in words)”) was “resistant”, the “Resistance, MO list in data base 1” value was “R” and the “Resistance, MO list in data base 2” value was “R”. For the same compound, the “Resistance, MO list in data base 3” value was “R” and the “Resistance, MO list in data base 4” value was “R”.

In the case of CC(=O)OCC1=C(C(=O)O)N2C(=O)[C@@H](NC(=O)Cc3cccs3)[C@H]2SC1 [CEPHALOTIN, cefalotin], the “Resistance … (in words)” value is reported as “resistant”, the “Resistance, MO list in data base 1” value is reported as “R” and the “Resistance, MO list in data base 2” value is reported as “R”. The “Resistance, MO list in data base 3” value was “R” and the “Resistance, MO list in data base 4” value was “R”.

CO/N=C(\C(=O)N[C@@H]1C(=O)N2C(C(=O)O)=C(CSc3nc(=O)c(O)nn3C)CS[C@H]12)c1csc(N)n1 [CETRIAXONE, cetriaxone] was tested, and the “Resistance … (in words)” value was “not resistant”, the “Resistance, MO list in data base 1” value was “S” and the “Resistance, MO list in data base 2” value was “S”. The “Resistance, MO list in data base 3” value was “S” and the “Resistance, MO list in data base 4” value was “S”.

With O=C(O)c1cn(C2CC2)c2cc(N3CCNCC3)c(F)cc2c1=O [CIPROFLOXACIN] the “Resistance, MO list in data base 1” value was “R”, the “Resistance, MO list in data base 2” value was “R” and the “Resistance, MO list in data base 4” value was “I”.

In the case of CCN1CCN(C(=O)N[C@@H](C(=O)N[C@@H]2C(=O)N3[C@@H]2SC(C)(C)[C@@H]3C(=O)O)c2ccccc2)C(=O)C1=O [PIPERACILLIN, piperacillin], the “Resistance … (in words)” value is reported as “resistant”, the “Resistance, MO list in data base 1” value is reported as “R” and the “Resistance, MO list in data base 2” value is reported as “R”. For the same compound, the “Resistance, MO list in data base 3” value was “R” and the “Resistance, MO list in data base 4” value was “R”.

For gentamicin, the “Resistance … (in words)” value was “not resistant”, the “Resistance, MO list in data base 1” value was “S” and the “Resistance, MO list in data base 2” value was “S”. For the same compound, the “Resistance, MO list in data base 3” value was “S” and the “Resistance, MO list in data base 4” value was “S”.
